# US10703723B2 (Truly Translational Sweden AB, priority 2017, dated 2020)
# Read-outs that look alike come from different tables or passages of the source.
# Key:
# [1] = solubility in de-ionized water at rt after 24 h; conditions: thermodynamic from solid
# Procedure: The produced examples were characterized regarding identity, crystal modification, thermal properties, melting point, solubility in water, purity, and hygroscopicity using the following methods:
# The flow rate was 1.0 mL/min, injection volume 5 μL and detection wavelengths 358 nm (for assay) and 260 nm (for chromatographic purity). Quantitation was performed using external standard methodology. The assay method has been validated with respect to selectivity, repeatability and linearity.
# [2] = appearance of test formulations / solubility over time in PBC buffer (pH 7.4); assay type: physicochemical; conditions: 0.5% CMC in phosphate buffer (pH 7.4)
# [3] = RA, 24 weeks, cited from earlier work
# [4] = in vivo; conditions: rat, po, 40 mg/kg
# Procedure: In accordance with Swedish legislations for preclinical in vivo studies in rodents and following evaluation and approval of the experimental procedures the local ethical committee (M388-12), following acclimatization to the housing conditions for a minimum of 7 days after arrival, male Wistar (Hannover) rats (Taconic, Denmark), average weight 300 g; average age 8-10 weeks, were treated with test items (see table 1); 12-16 h prior to dosing all food except for an amount equivalent to a half day consumption was removed. […] The rats were conscious during sample collection and the blood was taken from the sub-lingual vein. Blood samples were collected from each rat over a period of up to 24 h. At each time point two aliquots of 50 μL each was added to a vial containing 150 μL of sterile water. The samples were mixed immediately and stored in −18° C. until preparation for bioanalysis commenced. All formulations were prepared on the same day that dosing took place. The body weight of the rat was recorded before dosing. The weight of the syringe was recorded before and after administration to allow calculation of the actual amount of test sample delivered. Actual dose administered was used during the evaluation of the data.
# Samples and standards were injected by a HTC PAL from CTC analytics into an LC system from Shimadzu consisting of a high pressure gradient system of two LC-10 AD pumps controlled by a SCL-10A controller from Shimadzu. The samples were separated using reverse-phase chromatography with gradient elution at a flow rate of 0.8 mL/min. Mobile phases were A:94.9/5/0.1 water/acetonitrile/formic acid and B:5/94.9/0.1 water/acetonitrile/formic acid. Gradient started at 0% B and increased linearly to 100% B in 4 minutes, 100% B was kept for 0.5 minutes and then the system returned to 0% B in 0.1 minutes. The system was equilibrated for 1.4 minutes until the total run time of 6 minutes. The eluent was analyzed by a Quattro Ultima from Micromass equipped with an electrospray ion source. Data was collected and calibrations were calculated by MassLynx 4.0 software. […] The eluent was ionized by negative ion electrospray and the mrm transition from 397 to 197 m/z was monitored.
# The diluted blood sample (50 μL blood, 150 μL water) was thawed and mixed. 400 μL of acetonitrile, to precipitate the protein was added and mixed again. The sample was centrifuged at 5000 g for 5 minutes. 100 μL of the supernatant was transferred to a 300 μL glass vial and 100 μL of water was added to reduce the acetonitrile concentration.
# The concentration of the standard curve was in the range from 5 nM to 15625 nM. Samples with analyte concentrations above the upper limit of quantification were diluted with matrix to reach within the assay range. A non-compartmental analysis (NCA) was performed using the Phoenix WinNonLin analysis tool.
# [5] = cited from earlier work; for time to steady state levels: sulfasalazine therapy
# [6] = ambient temperature; cited from earlier work
Compound,solubility at 24 h [1] [µg/mL],Appearance of test formulations t = 0 h [2],Appearance of test formulations t = 4 h [2],Ratio SP to SSZ for AUC0-4 h (h*nmol/L) [4],Ratio SP to SSZ for Cmax (nmol/L) [4],other results
"CNC(=O)COC(=O)c1cc(/N=N/c2ccc(S(=O)(=O)Nc3ccccn3)cc2)ccc1O [Compound 2a, 2-(methylamino)-2-oxoethyl-2-hydroxy-5-((4-(N-(pyridine-2-yl)sulfamoyl)phenyl)diazenyl) benzoate]",> 5000,clear solution,clear solution,–,–,–
"O=C(O)c1cc(/N=N/c2ccc(S(=O)(=O)Nc3ccccn3)cc2)ccc1O [Sulfasalazine, 2-hydroxy-5-[2-[4-[(2-pyridinylamino)sulfonyl]phenyl]diazenyl]-benzoic acid]",–,–,–,–,–,"overall clinical status ([3]; fast acetylators, 3 g/day): marked improvement; overall clinical status ([3]; slow acetylators, half of the SSZ dose (1.5 g/d)): remained unchanged; Tmax ([4]; male, Wistar (Hannover)): 0.25 h; Tmax for SP ([4]; male, Wistar (Hannover)): 4 h; time to steady state levels of sulfasalazine ([5]; multiple dosing): ≤ 24 h; water solubility [6]: less than 0.05 mg/mL"
"O=C(OCC(=O)N1CCOCC1)c1cc(/N=N/c2ccc(S(=O)(=O)Nc3ccccn3)cc2)ccc1O [Compound 1a, 2-morpholino-2-oxoethyl-2-hydroxy-5-((4-(N-(pyridine-2-yl)sulfamoyl)phenyl)diazenyl) benzoate]",> 5000,clear solution,clear solution,–,–,–
CC(=O)Nc1ccc(S(=O)(=O)Nc2ccccn2)cc1 [acetylated sulfapyridine],–,–,–,–,–,time to steady state levels [5]: 72 h
"O=C(COC(=O)c1cc(N=Nc2ccc(S(=O)(=O)Nc3ccccn3)cc2)ccc1O)NCC1CC1 [Compound 2f, 2-((cyclopropylmethyl)amino)-2-oxoethyl-2-hydroxy-5-((4-(N-(pyridine-2-yl)sulfamoyl)phenyl)diazenyl) benzoate]",–,clear solution,milky,6:1,2:1,–
"CCN(CC)C(=O)COC(=O)c1cc(N=Nc2ccc(S(=O)(=O)Nc3ccccn3)cc2)ccc1O [Compound 3b, 2-(diethylamino)-2-oxoethyl-2-hydroxy-5-((4-(N-(pyridine-2-yl)sulfamoyl)phenyl)diazenyl) benzoate]",–,clear solution,clear solution,8:1,5:1,–
Nc1ccc(S(=O)(=O)Nc2ccccn2)cc1 [sulfapyridine],–,–,–,–,–,elimination half-life ([5]; fast acetylators): 5.5 h; total plasma clearance ([5]; fast acetylators): 135.3 mL/min; time after which metabolite can be detected in the plasma ([5]; following oral administration of sulfasalazine): about 10 hours; plasma protein binding ([5]; no difference between fast and slow acetylators): ca. 50 °; elimination half-life ([5]; slow acetylators): 15.3 h; total plasma clearance ([5]; slow acetylators): 36.9 mL/min; time to steady state levels [5]: 72 h
"COCCNC(=O)COC(=O)c1cc(N=Nc2ccc(S(=O)(=O)Nc3ccccn3)cc2)ccc1O [Compound 2h, 2-(2-methoxylethyl)amino)-2-oxoethyl-2-hydroxy-5-((4-(N-(pyridine-2-yl)sulfamoyl)phenyl)diazenyl) benzoate]",–,clear solution,clear solution,8:1,6:1,–
"CCN(C)C(=O)COC(=O)c1cc(/N=N/c2ccc(S(=O)(=O)Nc3ccccn3)cc2)ccc1O [Compound 4a, 2-(ethyl(methyl)amino)-2-oxoethyl-2-hydroxy-5-((4-(N-(pyridine-2-yl)sulfamoyl)phenyl)diazenyl) benzoate]",> 1000,clear solution,clear solution,–,–,–
"CN(C)C(=O)COC(=O)c1cc(/N=N/c2ccc(S(=O)(=O)Nc3ccccn3)cc2)ccc1O [Compound 3a, 2-(dimethylamino)-2-oxoethyl-2-hydroxy-5-((4-(N-(pyridine-2-yl)sulfamoyl)phenyl)diazenyl) benzoate]",> 500,clear solution,milky,–,–,–
"CC(C)NC(=O)COC(=O)c1cc(N=Nc2ccc(S(=O)(=O)Nc3ccccn3)cc2)ccc1O [Compound 2d, 2-(isopropylamino)-2-oxoethyl-2-hydroxy-5-((4-(N-(pyridine-2-yl)sulfamoyl)phenyl)diazenyl) benzoate]",–,clear solution,clear solution,2:1,2:1,–
